Holding throughout (assay): MIC, NCCLS broth microdilution
Common to all, as to format: cell-based

Experiment [1] concerns Serratia marcescens S6. The settings on record: for MIC of antibiotic at fixed inhibitor concentration (4 mg/L): MIC of antibiotic compound 1 with the labelled bridged monobactam of formula II and clavulanate, 4 mg/L each.
For experiment [2], the system named is Stenotrophomonas malthophilia 1AC736. The note with it: for MIC of antibiotic at fixed inhibitor concentration (4 mg/L): Stenotrophomonas malthophilia 1AC736, MIC of antibiotic compound 1 with the labelled bridged monobactam of formula II and clavulanate, 4 mg/L each.
The subject of experiment [3] is Pseudomonas aeruginosa 1973E. The note with it: for MIC of antibiotic at fixed inhibitor concentration (4 mg/L): MIC of antibiotic compound 1 with the labelled bridged monobactam of formula II and clavulanate, 4 mg/L each. The procedure: Antimicrobial activity of the compounds and of their combinations was determined against a selection of organisms according to the standard procedures described by the National Committee for Clinical Laboratory Standards (National Committee for Clinical Laboratory. Standards (2000). Methods for Dilution Antimicrobial Susceptibility Tests for Bacteria That Grow Aerobically-Fifth Edition: Approved Standard M7-A5. NCCLS, Wayne, Pa., USA).
In all cases the final concentration of DMSO incubated with the bacteria is less than or equal to 1%. […] Plates were incubated overnight at an appropriate temperature (30° C. or 37° C.) and optical densities assessed by eye. The MIC value is defined as the lowest compound concentration completely inhibiting visible growth of the test organism. When combinations between compounds of formula I with compounds of formula II and are evaluated the compounds of formula I are tested in dilution series as described above while the compounds of formula II and III-XIII were present in all wells at a constant concentration of 4 μg/mL each.

The subject of experiment [4] is Acinetobacter sp. J2. The note with it: for MIC of antibiotic at fixed inhibitor concentration (4 mg/L): Acinetobacter sp. J2, MIC of antibiotic compound 1 with the labelled bridged monobactam of formula II and clavulanate, 4 mg/L each.
For experiment [5], the system named is Enterobacter cloacae P99. The note with it: for MIC of antibiotic at fixed inhibitor concentration (4 mg/L): MIC of antibiotic compound 1 with the labelled bridged monobactam of formula II and clavulanate, 4 mg/L each.
The subject of experiment [6] is Klebsiella pneumoniae CF104. The settings on record: for MIC of antibiotic at fixed inhibitor concentration (4 mg/L): MIC of antibiotic compound 1 with the labelled bridged monobactam of formula II and clavulanate, 4 mg/L each.
Experiment [7] deals with Pseudomonas aeruginosa MK1184. The settings on record: for MIC of antibiotic at fixed inhibitor concentration (4 mg/L): MIC of antibiotic compound 1 with the labelled bridged monobactam of formula II and clavulanate, 4 mg/L each.

The text below walks through data of patent US20160122320A1, “USEFUL COMBINATIONS OF MONOBACTAM ANTIBIOTICS WITH BETA-LACTAMASE INHIBITORS” (Basilea Pharmaceutica AG, priority 2005, published 2016).

Where a name gives a salt, the structure may show the parent alone.

For `NC(=O)c1ccc(NC(=O)N2CC[C@@H]3[C@H]2C(=O)N3S(=O)(=O)[O-])cc1.[Na+]` [Compound 311], the “MIC of antibiotic at fixed inhibitor concentration (4 mg/L)” value in experiment [1] was determined as 0.25 µg/mL; in experiment [2], 0.125 µg/mL; in experiment [3], 4 µg/mL; in experiment [4], 4 µg/mL; in experiment [5], 8 µg/mL; in experiment [6], 0.5 µg/mL. The “MIC of antibiotic at fixed inhibitor concentration (4 mg/L)” value in experiment [7] is greater than 32 µg/mL.

Consider `Nc1nc(C(=NOCc2cc(=O)c(O)cn2O)C(=O)NC2CN(S(=O)(=O)O)C2=O)cs1` (stereo not shown) [Compound 9], for which the MIC of antibiotic in experiment [1] (antibiotic alone, no inhibitor) was 16 µg/mL; in experiment [2] (Stenotrophomonas maltophilia 1AC736, antibiotic alone, no inhibitor), 0.5 µg/mL; in experiment [3] (antibiotic alone, no inhibitor), 8 µg/mL; in experiment [4] (Acinetobacter baumannii J2, antibiotic alone, no inhibitor), greater than 32 µg/mL; in experiment [5] (antibiotic alone, no inhibitor), greater than 32 µg/mL; in experiment [6] (antibiotic alone, no inhibitor), greater than 32 µg/mL. In addition, the MIC of antibiotic in experiment [7] (antibiotic alone, no inhibitor) was greater than 32 µg/mL. Also, the “MIC of antibiotic at fixed inhibitor concentration of 4 mg/L” value in experiment [1] (with 102 and clavulanate) was 1 µg/mL; in experiment [2] (Stenotrophomonas maltophilia 1AC736, with 102 and clavulanate), 0.25 µg/mL; in experiment [3] (with 102 and clavulanate), 8 µg/mL; in experiment [4] (Acinetobacter baumannii J2, with 102 and clavulanate), greater than 32 µg/mL; in experiment [5] (with 102 and clavulanate), 32 µg/mL; in experiment [6] (with 102 and clavulanate), 0.5 µg/mL. Further, the “MIC of antibiotic at fixed inhibitor concentration of 4 mg/L” value in experiment [7] (with 102 and clavulanate) stood at 4 µg/mL.

On to `O=C(Nc1ccc2[nH]c(=O)[nH]c2c1)N1CC[C@@H]2[C@H]1C(=O)N2S(=O)(=O)[O-].[Na+]` [Compound 319, Sodium(1S,5R)-7-oxo-2-[N-(2-oxo(3-hydrobenzimidazol-5-yl))carbamoyl]-2,6-diazabicyclo[3.2.0]heptane-6-sulfonate], for which the “MIC of antibiotic at fixed inhibitor concentration (4 mg/L)” value is 0.25 µg/mL in experiment [1]; 0.125 µg/mL in experiment [2]; 4 µg/mL in experiment [3]; greater than 32 µg/mL in experiment [4]; 16 µg/mL in experiment [5]; 0.25 µg/mL in experiment [6]. For the same compound, in experiment [7], the “MIC of antibiotic at fixed inhibitor concentration (4 mg/L)” value was greater than 32 µg/mL.

On to `Nc1ccc[n+](CC(=O)N2CC[C@@H]3[C@H]2C(=O)N3S(=O)(=O)[O-])c1` [Compound 107, (1S,5R)-2-[2-(3-aminopyridinium)acetyl]-7-oxo-2,6-diazabicyclo[3.2.0]heptane-6-sulfonate, inner salt], for which the “MIC of antibiotic at fixed inhibitor concentration (4 mg/L)” value in experiment [1] came to 0.125 µg/mL; in experiment [2] it was 0.125 µg/mL; in experiment [3], 4 µg/mL; in experiment [4], 8 µg/mL; in experiment [5], 32 µg/mL; in experiment [6], 1 µg/mL. The “MIC of antibiotic at fixed inhibitor concentration (4 mg/L)” value in experiment [7] was found to be 8 µg/mL.

As for `Cn1nnnc1SCC(=O)N1CC[C@@H]2[C@H]1C(=O)N2S(=O)(=O)[O-].[Na+]` [Compound 206], the “MIC of antibiotic at fixed inhibitor concentration (4 mg/L)” value in experiment [1] came out at 4 µg/mL; in experiment [2], 0.125 µg/mL; in experiment [3], 4 µg/mL; in experiment [4], 4 µg/mL; in experiment [5] it was 8 µg/mL; in experiment [6] it was 0.25 µg/mL. For the same compound, in experiment [7], the “MIC of antibiotic at fixed inhibitor concentration (4 mg/L)” value was greater than 32 µg/mL.

Regarding `CNC(=O)c1ccc[n+](CC(=O)N2CC[C@@H]3[C@H]2C(=O)N3S(=O)(=O)[O-])c1` [Compound 101, (1S,5R)-2-{2-[3-(N-methylcarbamoyl)pyridinium]acetyl}-7-oxo-2,6-diazabicyclo[3.2.0]heptane-6-sulfonate, inner salt], the “MIC of antibiotic at fixed inhibitor concentration (4 mg/L)” value is 0.5 µg/mL in experiment [1]; 0.125 µg/mL in experiment [2]; 4 µg/mL in experiment [3]; greater than 32 µg/mL in experiment [4]; 32 µg/mL in experiment [5]; 2 µg/mL in experiment [6]. Besides, the “MIC of antibiotic at fixed inhibitor concentration (4 mg/L)” value in experiment [7] is 8 µg/mL.

Consider `NC(=S)c1cc[n+](CC(=O)N2CC[C@@H]3[C@H]2C(=O)N3S(=O)(=O)[O-])cc1` [Compound 118, (1S,5R)-2-{2-[4-(aminothioxomethyl)pyridinium]acetyl}-7-oxo-2,6-diazabicyclo[3.2.0]heptane-6-sulfonate, inner salt], for which the “MIC of antibiotic at fixed inhibitor concentration (4 mg/L)” value is 0.25 µg/mL in experiment [1]; 0.125 µg/mL in experiment [2]; 4 µg/mL in experiment [3]; greater than 32 µg/mL in experiment [4]; 32 µg/mL in experiment [5]; 0.125 µg/mL in experiment [6]. In addition, the “MIC of antibiotic at fixed inhibitor concentration (4 mg/L)” value in experiment [7] was 32 µg/mL.

Take `CCOC(=O)c1cccc(NC(=O)N2CC[C@@H]3[C@H]2C(=O)N3S(=O)(=O)[O-])c1.[Na+]` [Compound 320, Sodium(1S,5R)-2-{N-[3-(ethoxycarbonyl)phenyl]carbamoyl}-7-oxo-2,6-diazabicyclo[3.2.0]heptane-6-sulfonate]: the “MIC of antibiotic at fixed inhibitor concentration (4 mg/L)” value in experiment [1] is 0.25 µg/mL; in experiment [2] it was 0.125 µg/mL; in experiment [3], 8 µg/mL; in experiment [4], greater than 32 µg/mL; in experiment [5] it was 8 µg/mL; in experiment [6] it was 0.5 µg/mL. The “MIC of antibiotic at fixed inhibitor concentration (4 mg/L)” value in experiment [7] was greater than 32 µg/mL.

`O=C(C[n+]1ccccc1)Nc1ccc(SCC(=O)N2CC[C@@H]3[C@H]2C(=O)N3S(=O)(=O)[O-])cc1` [Compound 204, (1S,5R)-7-oxo-2-{2-[4-(2-pyridiniumacetylamino)phenylthio]acetyl}-2,6-diazabicyclo[3.2.0]heptane-6-sulfonate, inner salt]: the “MIC of antibiotic at fixed inhibitor concentration (4 mg/L)” value in experiment [1] came out at 0.25 µg/mL; in experiment [2] it was 8 µg/mL; in experiment [3], 4 µg/mL; in experiment [4] it was 2 µg/mL; in experiment [5] it was 8 µg/mL; in experiment [6] it was 2 µg/mL. In addition, the “MIC of antibiotic at fixed inhibitor concentration (4 mg/L)” value in experiment [7] amounted to 32 µg/mL.

As for `O=C(CSc1nnnn1-c1ccccc1)N1CC[C@@H]2[C@H]1C(=O)N2S(=O)(=O)[O-].[Na+]` [Compound 201], the “MIC of antibiotic at fixed inhibitor concentration (4 mg/L)” value was 2 µg/mL in experiment [1]; 0.125 µg/mL in experiment [2]; 8 µg/mL in experiment [3]; 4 µg/mL in experiment [4]; 32 µg/mL in experiment [5]; greater than 32 µg/mL in experiment [6]. Further, the “MIC of antibiotic at fixed inhibitor concentration (4 mg/L)” value in experiment [7] is 32 µg/mL.

Consider `O=C(Nc1ccc(O)c(O)c1)N1CC[C@@H]2[C@H]1C(=O)N2S(=O)(=O)[O-].[Na+]` [Compound 306, Sodium(1S,5R)-2-[N-(3,4-dihydroxyphenyl)carbamoyl]-7-oxo-2,6-diazabicyclo[3.2.0]heptane-6-sulfonate], for which the “MIC of antibiotic at fixed inhibitor concentration (4 mg/L)” value in experiment [1] was 0.5 µg/mL; in experiment [2] it was 0.25 µg/mL; in experiment [3], 4 µg/mL; in experiment [4], greater than 32 µg/mL; in experiment [5] it was 32 µg/mL; in experiment [6], 2 µg/mL. Besides, in experiment [7], the “MIC of antibiotic at fixed inhibitor concentration (4 mg/L)” value is greater than 32 µg/mL.

Turning to `CN(C)n1ccc(SCC(=O)N2CC[C@@H]3[C@H]2C(=O)N3S(=O)(=O)O)nc1=O` [Compound 203, (1S,5R)-2-{2-[1-(dimethylamino)-2-oxohydropyrimidin-4-ylthio]acetyl}-7-oxo-2,6-diazabicyclo[3.2.0]heptane-6-sulfonic acid], the “MIC of antibiotic at fixed inhibitor concentration (4 mg/L)” value in experiment [1] worked out at 0.25 µg/mL; in experiment [2], 8 µg/mL; in experiment [3] it was 4 µg/mL; in experiment [4], 2 µg/mL; in experiment [5], 32 µg/mL; in experiment [6], 1 µg/mL. Moreover, the “MIC of antibiotic at fixed inhibitor concentration (4 mg/L)” value in experiment [7] came to 32 µg/mL.
